# “Also recorded” adds a separate entry of the source.
# How the values were obtained:
# Format in all cases: cell-based, human
# HeLa cells [1] = assay: Perinucleolar compartment (PNC) prevalence reduction; conditions: for PNC prevalence reduction at [GI50%]: [GI50%] for 72 hr
# Experimental: Perinucleolar Compartment (PNC) Reduction: HeLa cells (PNC prevalence ˜85%) were plated 5,000/well in glass bottom 96 well plates and allowed to attach for 8 hr. The cells were then treated with compounds at the respective [GI50%] for 72 hr and [GI99%] for 20 hr for each compound (total media volume was 200 μL/well with 1% DMSO). After treatment cells were immunofluorescently stained as previously described, but with a Texas Red labeled secondary antibody (Jackson) instead of a FITC labeled secondary antibody. PNC prevalence (% of non-apoptotic/non-mitotic cells with 1 or more PNCs) was determined by scoring >200 cells per well with fluorescent microscope (60× objective) and images were acquired with the digital camera and image acquisition software previously mentioned. Scale bar=10 μm. Data are expressed as the average PNC prevalence (% control) of three individual experiments.
# The PNC is a unique structural marker that it is only found in malignantly transformed cancer cells, irrespective of tissue origin, and indicates cells that are capable of metastasis. […] Previous studies indicate that the PNC likely conveys a functional metastatic advantage to cancer cells. The PNC prevalence (% of cells with one or more PNC) in human breast cancer positively correlates with the progression of the disease and is always near 100% in distant metastases. […] The PNC prevalence reduction was determined for amonafide and A1-A9 at the respective [GI50%] and [GI99%] doses in HeLa cells, which have a high PNC prevalence of ˜85%.
# [2] = tested on: Normal cells (PBMC, HUVEC, and WI-38); assay: Cancer cell selective growth inhibition (cancer cells vs normal cells); conditions: 72 hr MTS
# Experimental: […] Peripheral blood mononuclear cells (PBMCs) were voluntarily collected from a healthy laboratory worker by standard sterile phlebotomy techniques and isolated using Vacutainer CPT collection tubes (BD Biosciences—Bedford, Mass.). PBMCs were isolated freshly for each experiment. All DMEM and RPMI-1640 media was supplemented with 10% FBS (Atlanta Biologicals—Lawrenceville, Ga.) and 100 U/mL penicillin and streptomycin (Invitrogen). HUVEC (Human umbilical vein endothelial cells) were cultured in EGM-2 media with supplements provided in the manufacturers BulletKit (Lonza—Walersville, Md.). All cells were maintained at 37° C. and in a 5% CO2 atmosphere.
# Growth Inhibition Assays: HeLa, MDA-MB-231, PC-3M, WI-38, and HUVEC cells were plated at 5,000 cells per well in 96 well plates and allowed to attach for 20 hr (8 hr for HeLa). The media was removed and 198 μL of fresh media was added to each well. […] PBMCs were isolated and plated at 100,000 per well in 96 well plates with a volume of 197 μL. They were allowed to settle in the media for 20 hr, at which point 1 μL of 1 mg/mL phytohemagglutinin (Sigma—St. Loius Mo.) in PBS was added to stimulate proliferation (final concentration of 5 μg/mL). […] Cell proliferation was measured at t=0 (time at start of treatment) and t=72 hr using MTS AQueous non-radioactive proliferation assay (Promega—Madison, Wis.). This assay utilizes the metabolic conversion of yellow tetrazolium to a purple formazan by live cells and the color change is proportional to the number of cells. […] The absorbance at 490 nm in each well was read with a Spectramax 250 plate reader (Molecular Devices—Sunnyvale, Calif.). […] Data were fit to one site dose response curves in order to obtain specific growth inhibitory concentrations and the relative standard errors of the mean for these concentrations were calculated by the XLfit4 software. Statistical significance (p value) for the selectivity and all subsequent assays was determined with the two tailed homoscedastic Student's t-test. […]
# HeLa cells [3] = assay: Transwell invasion assay; conditions: [GI99%], matrigel, 20 hr
# Experimental: Transwell Invasion Assay: HeLa cells were plated at 250,000 per 35 mm well and allowed to attach for 8 hr. The cells were washed with PBS and then treated for 4 hr with the [GI99%] of each compound (or 1% DMSO—vehicle control) in serum free media to decrease the number of invading cells in the beginning of the experiment due to a preliminary lack of drug exposure. The cells were then trypsinized and counted by trypan blue exclusion with a hemacytometer (Sigma—St. Louis, Mo.). Eight micron pore size control well inserts for 12 well plates (BD Biosciences) were coated with 100 μL 1 mg/mL matrigel (Sigma—St. Louis, Mo.) and allowed to solidify at room temperature for 1 hr. The excess matrigel was aspirated and the inserts were gently washed with PBS. The cells were seeded at a density of 300,000 per insert well in a volume of 500 μL serum free media containing a derivative or vehicle. The inserts were then placed in wells containing 700 μL serum free media with the respective compound. After 20 hr the cells on the top of the membranes were gently removed with a cotton swab, the membranes then were fixed in methanol for 1 min, stained in Gills No. 3 Hematoxylin (Sigma—St. Louis, Mo.) for 5 min, rinsed in tap water, and allowed to dry overnight. The membranes were excised, mounted on slides, and the cells were counted under the 40× objective of a bright field microscope. The data are expressed as the average total number of invading cells counted in 20 fields of each membrane, as standardized to the vehicle control, from six experiments.
# Effect of derivatives on the malignant phenotype—invasion assay: If A1-A9 have differential targets, DNA binding specificity, or downstream effects they may differentially alter the malignant behavior of cells. Also, anti-cancer compounds can be efficacious against tumors in other ways besides inhibiting growth and inducing death of cancer cells; they can also alter the behavior of malignant cells. Therefore, the ability of A1-A9 and amonafide to alter the invasive behavior of cancer cells in a transwell (also known as Boyden chamber) invasion assay was evaluated, which determines the ability of cells to migrate through a proteinacious gel. This behavior is considered to be representative of cancer cell invasion through the basement membrane of the primary tumor environment. In this assay, treated cells are seeded on to the top of the matrigel-coated porous membrane, allowed to invade through the proteinacious gel onto the underside of the membrane, and then counted.
Structure (SMILES),PNC prevalence reduction at [GI50%] (HeLa cells [1]),cancer cell selective growth inhibition (selectivity) [2],invasive behavior (% invading cells vs vehicle) (HeLa cells [3]),PNC prevalence reduction at [GI99%] (HeLa cells [1]; [GI99%] for 20 hr)
"CN(C)CCN1C(=O)c2cccc3c(N)ccc(c23)C1=O [A1, 6-amino-2-[2-(dimethylamino)ethyl]-1H-benz[de]isoquinoline-1,3(2H)-dione]",able effectively reduce the PNC; also recorded: can significantly reduce PNC prevalence,near identical to amonafide,did not significantly alter the invasive behavior of HeLa cells compared to the control,–
"CN(C)CCN1C(=O)c2cccc3cc(N)cc(c23)C1=O [amonafide, reference compound]",able effectively reduce the PNC; also recorded: can significantly reduce PNC prevalence,slightly more potent (but not with statistical significance) or equally potent at inhibiting the growth of cancer cells over normal cells,did not significantly alter the invasive behavior of HeLa cells compared to the control,able to greatly reduce the PNC prevalence
